Several values for one entry are separate records, joined by “and”; a condition that tells them apart may be missing. Equal entries are not always repeated.
Tests used:
[1] = molecular target: Glycogen synthase kinase-3 beta (Homo sapiens, UniProt P49841); assay: TR-FRET Assay
Method in brief: (§1)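 Compound was preincubated 30 min in assay buffer before the kinase reaction, which was quenched with EDTA. Phosphorylation was detected by TR-FRET after adding a solution of 40 nM streptavidin-d2 and 2 nM Tb-labelled anti-pSer641 antibody.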

[2] = molecular target: Glycogen synthase kinase-3 alpha (Homo sapiens, UniProt P49840); assay: TR-FRET Assay
Sequence of Glycogen synthase kinase-3 alpha (P49840 whole entry): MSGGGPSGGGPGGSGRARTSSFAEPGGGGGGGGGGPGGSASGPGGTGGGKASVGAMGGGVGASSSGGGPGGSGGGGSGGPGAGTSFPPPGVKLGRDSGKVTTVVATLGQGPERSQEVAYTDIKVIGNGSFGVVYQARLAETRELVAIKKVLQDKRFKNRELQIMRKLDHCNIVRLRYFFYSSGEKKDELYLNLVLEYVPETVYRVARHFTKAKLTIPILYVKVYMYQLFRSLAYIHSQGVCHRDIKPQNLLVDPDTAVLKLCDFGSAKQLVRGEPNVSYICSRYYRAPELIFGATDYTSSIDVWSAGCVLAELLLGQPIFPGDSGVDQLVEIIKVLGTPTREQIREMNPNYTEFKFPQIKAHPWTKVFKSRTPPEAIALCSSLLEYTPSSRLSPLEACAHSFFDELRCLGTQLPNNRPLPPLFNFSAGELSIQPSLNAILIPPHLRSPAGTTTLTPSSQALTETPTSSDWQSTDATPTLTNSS
Method in brief: as §1

Sequence of Glycogen synthase kinase-3 beta (P49841 whole entry): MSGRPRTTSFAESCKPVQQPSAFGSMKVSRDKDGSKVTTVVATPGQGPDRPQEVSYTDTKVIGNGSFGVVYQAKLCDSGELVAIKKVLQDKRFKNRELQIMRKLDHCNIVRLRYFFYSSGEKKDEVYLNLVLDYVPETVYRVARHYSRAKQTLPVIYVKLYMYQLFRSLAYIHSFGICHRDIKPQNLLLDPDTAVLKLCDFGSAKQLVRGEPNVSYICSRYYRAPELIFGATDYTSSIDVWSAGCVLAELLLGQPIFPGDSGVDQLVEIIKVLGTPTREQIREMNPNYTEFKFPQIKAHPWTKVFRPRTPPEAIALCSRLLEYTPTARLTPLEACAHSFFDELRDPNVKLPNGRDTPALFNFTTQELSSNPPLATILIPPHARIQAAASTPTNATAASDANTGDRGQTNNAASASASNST

Row | Compound | IC50 [1] | IC50 [2]
1 | CC[C@@]1(c2cccc(-c3ccncc3C(F)(F)F)c2)C2=C(N=NC2)NC2=C1C(=O)C(C)(C)C2 [US20250313563, Compound 952757] | > 5 µM | 1 to 5 µM
2 | CC[C@]1(c2cccc([C@@H](C)c3ncccn3)c2)C2=CN=NC2NC2=C1C(=O)CC(C)(C)C2 (stereo partly specified) [US20250313563, Compound 948058] | < 0.1 µM and 1 to 5 µM | < 0.1 µM and 0.1 to 1 µM
3 | CC[C@]1(c2cccc(-c3cnn(C)c3C)c2)C2=CN=NC2NC2=C1C(=O)NC(C)(C)C2 (stereo partly specified) [US20250313563, Compound 945617] | > 5 µM | 1 to 5 µM
4 | CC(C)[C@@H]1C[C@]2(CCO1)C1=C(N=NC1)NC1=C2C(=O)CC(C)(C)C1 [US20250313563, Compound 884013] | > 5 µM | 1 to 5 µM
5 | CCc1cccc([C@@]2(CC)C3=CN=NC3NC3=C2C(=O)CC(C)(C)C3)c1 (stereo partly specified) [US20250313563, Compound 949401] | < 0.1 µM and 1 to 5 µM | < 0.1 µM and 0.1 to 1 µM
6 | CC[C@]1(c2cccc(-c3ccnc(C)c3)c2)C2=CN=NC2NC2=C1C(=O)[C@@H]1CC[C@H]2C1 (stereo partly specified) [US20250313563, Compound 943921] | > 5 µM | 1 to 5 µM
7 | CC[C@]1(c2cccc(-c3cnn(C)c3C)c2)C2=C(CC(C)(C)NC2=O)NC2N=NC(C)=C21 (stereo partly specified) [US20250313563, Compound 945727] | > 5 µM | > 5 µM
8 | CC[C@]1(c2ccccc2)C2=CN=NC2NC2=C1C(=O)CC(C)(C)[C@H]2F (stereo partly specified) [US20250313563, Compound 957197] | 1 to 5 µM and > 5 µM | 0.1 to 1 µM and > 5 µM
9 | CC[C@@]1(c2cccc(C3=C(C)SN(C)C3)c2)C2=CN=NC2NC2=C1C(=O)NC1(CCCC1)C2 (stereo partly specified) [US20250313563, Compound 950255] | > 5 µM | 0.1 to 1 µM
10 | CCC1(c2cccc(CN3CCCCC3)c2)C2=CN=NC2NC2=C1C(=O)CC(C)(C)C2 (stereo unspecified) [US20250313563, Compound 819560] | > 5 µM | 1 to 5 µM
11 | CC[C@@]1(c2cccc(C(F)(F)F)c2)C2=CN=NC2NC2=C1C(=O)NC1(CCC1)C2 (stereo partly specified) [US20250313563, Compound 914344] | > 5 µM | 0.1 to 1 µM
12 | CC[C@]1(c2cccc(N(C)c3ncccn3)c2)C2=C(CC(C)(C)NC2=O)NC2N=NC(F)=C21 (stereo partly specified) [US20250313563, Compound 949647] | > 5 µM | 0.1 to 1 µM
13 | CC[C@@]1(c2cccc(-c3ccnc(C)c3)c2)C2=C(CC(C)(C)CC2=O)NC2N=NC(C(F)(F)F)=C21 (stereo partly specified) [US20250313563, Compound 917289] | 1 to 5 µM | 0.1 to 1 µM
14 | CC1(C)CC(=O)C2=C(C1)NC1=C(CN=N1)C2(C)c1cc(F)cc(F)c1 (stereo unspecified) [US20250313563, Compound 785735] | > 5 µM | 0.1 to 1 µM
15 | CC[C@]1(c2cccc(-c3cnn(C)c3)c2)C2=C(CC(C)(C)CC2=O)NC2N=NC(C)=C21 (stereo partly specified) [US20250313563, Compound 913038] | 1 to 5 µM | 0.1 to 1 µM
16 | CC[C@]1(c2cccc(C(F)(F)F)c2)C2=C(N=NC2)NC2=C1C(=O)N(c1ccccc1)C2 [US20250313563, Compound 945376] | > 5 µM | > 5 µM
17 | CC[C@]1(c2cccc(-c3cnn(-c4cccnc4)c3)c2)C2=CN=NC2NC2=C1C(=O)NC(C)(C)C2 (stereo partly specified) [US20250313563, Compound 949515] | > 5 µM | > 5 µM
18 | CC[C@@]1(c2cccc(-c3cnn(C(F)F)c3)c2)C2=CN=NC2NC2=C1C(=O)NC(C)(C)C2 (stereo partly specified) [US20250313563, Compound 950254] | 1 to 5 µM | < 0.1 µM
19 | CC[C@@]1(c2cccc(C(F)(F)F)c2)C2=CN=NC2NC2=C1C(=O)CC1(CCCC1)C2 (stereo partly specified) [US20250313563, Compound 801310] | > 1.67 µM | 0.1 to 1 µM
20 | CC1OCCC12C1=C(N=NC1)NC1=C2C(=O)CC(C)(C)C1 (stereo unspecified) [US20250313563, Compound 911958] | > 5 µM | > 5 µM
21 | CC1(C)CC(=O)C2=C(C1)NC1=C(CN=N1)[C@]21CCO[C@H](C(F)(F)F)C1 [US20250313563, Compound 884023] | > 5 µM | 1 to 5 µM
22 | CC1(C)CC(=O)C2=C(C1)NC1=C(CN=N1)C21CCN(S(=O)(=O)c2cnn(CC(F)(F)F)c2)CC1 [US20250313563, Compound 948123] | < 0.1 µM and 0.1 to 1 µM | < 0.1 µM and 0.1 to 1 µM
23 | CCC1(c2cccc(C(F)(F)F)c2)C2=CN=NC2NC2=C1C(=O)NC(c1ccccc1)C2 (stereo unspecified) [US20250313563, Compound 917284] | 1 to 5 µM | 0.1 to 1 µM
24 | CC[C@]1(c2cccc(C3CN(C(C)=O)C3)c2)C2=CN=NC2NC2=C1C(=O)CC(C)(C)C2 (stereo partly specified) [US20250313563, Compound 949131] | 1 to 5 µM | 0.1 to 1 µM
25 | CC1(C)CC(=O)C2=C(NC3=C(CN=N3)[C@]23CC[C@@H](C(F)(F)F)CC3)[C@H]1F [US20250313563, Compound 918285] | 0.1 to 1 µM and > 5 µM | < 0.1 µM and 1 to 5 µM
26 | CC[C@]1(c2cccc(-c3ccnc4cnccc34)c2)C2=CN=NC2NC2=C1C(=O)NC(C)(C)C2 (stereo partly specified) [US20250313563, Compound 948819] | > 5 µM | 1 to 5 µM
27 | CC[C@]1(c2cccc(-c3cc(C)nnc3C)c2)C2=CN=NC2NC2=C1C(=O)NC(C)(C)C2 (stereo partly specified) [US20250313563, Compound 949334] | > 5 µM | 1 to 5 µM

The remaining lines, values ahead:

Row | IC50 [1] | IC50 [2] | Compound
28 | 0.1 to 1 µM | < 0.1 µM | Cn1cc(S(=O)(=O)N2CCC3(CC2)C2=C(N=NC2)NC2=C3C(=O)CC(C)(C)C2)nn1 [US20250313563, Compound 947898]
29 | < 0.1 µM | < 0.1 µM | CC1(C)CC(=O)C2=C(C1)NC1=C(CN=N1)[C@@]21CCN(S(=O)(=O)CC2CC2)C1 [US20250313563, Compound 951724]
30 | 0.1 to 1 µM | 0.1 to 1 µM | CCC1(c2cccc(C3CC4CCC(C3)O4)c2)C2=CN=NC2NC2=C1C(=O)CC(C)(C)C2 (stereo unspecified) [US20250313563, Compound 889622]
31 | < 0.1 µM | < 0.1 µM | CC[C@]1(c2cccc(C(F)(F)F)c2)C2=CN=NC2NC2=C1C(=O)N(C)C[C@@H]2C (stereo partly specified) [US20250313563, Compound 883979]
32 | 0.1 to 1 µM | < 0.1 µM | CCC1(c2cccc(N3CC4CCC3CC4)c2)C2=CN=NC2NC2=C1C(=O)CC(C)(C)C2 (stereo unspecified) [US20250313563, Compound 885120]
33 | < 0.1 µM | < 0.1 µM | CCC1(c2cccc(-c3ccncc3O)c2)C2=C(CC(C)(C)CC2=O)NC2N=NC(C)=C21 (stereo unspecified) [US20250313563, Compound 944024]
34 | < 0.1 µM | < 0.1 µM | CC1(C)CC(=O)C2=C(C1)NC1=C(CN=N1)[C@]21C[C@@H](n2cccn2)C1 [US20250313563, Compound 884004]
35 | < 0.1 µM | < 0.1 µM | CC[C@@]1(c2cccc(-c3ccncc3)c2)C2=C(CC(C)(C)CC2=O)NC2N=NC(C)=C21 (stereo partly specified) [US20250313563, Compound 913015]
36 | 0.1 to 1 µM | < 0.1 µM | CC[C@@]1(c2cccc(-c3cnn4c3CC(C)(C)CC4)c2)C2=CN=NC2NC2=C1C(=O)NC(C)(C)C2 (stereo partly specified) [US20250313563, Compound 950564]
37 | 0.1 to 1 µM | < 0.1 µM | CCC1(c2cccc(C(F)(F)F)c2)C2=CN=NC2NC2=C1C(=O)NCC2C (stereo unspecified) [US20250313563, Compound 919318]
38 | 1 to 5 µM | 0.1 to 1 µM | CC[C@]1(c2cccc(-c3c(C)nn(C)c3C)c2)C2=C(CC(C)(C)NC2=O)NC2N=NC(C)=C21 (stereo partly specified) [US20250313563, Compound 947573]
39 | 0.1 to 1 µM | < 0.1 µM | CC1=C2C(N=N1)NC1=C(C(=O)CC(C)(C)C1)C21CCCCC1 (stereo unspecified) [US20250313563, Compound 883865]
40 | < 0.1 µM | < 0.1 µM | COc1cccc(S(=O)(=O)N2CC[C@@]3(C2)C2=C(N=NC2)NC2=C3C(=O)CC(C)(C)C2)c1 [US20250313563, Compound 943486]
41 | 0.1 to 1 µM | < 0.1 µM | CC[C@@]1(c2cccc(-c3cnn(C)c3C)c2)C2=CN=NC2NC2=C1C(=O)NC(C)(C)C2 (stereo partly specified) [US20250313563, Compound 945608]
42 | 0.1 to 1 µM | < 0.1 µM | CCC1(c2cccc(C(C)C)c2)C2=C(N=NC2)NC2=C1C(=O)NC(C)(C)C2 (stereo unspecified) [US20250313563, Compound 949326]
43 | 0.1 to 1 µM | < 0.1 µM | CCC1(c2cccc(Br)c2)C2=C(N=NC2)NC2=C1C(=O)CC(C)(C)C2 (stereo unspecified) [US20250313563, Compound 789312]
44 | 0.1 to 1 µM | < 0.1 µM | CCC1(c2cccc(C(F)(F)F)c2)C2=C(N=NC2)NC2=C1C(=O)N(Cc1ccccc1)C2 (stereo unspecified) [US20250313563, Compound 917159]
45 | 0.1 to 1 µM | 0.1 to 1 µM | CC[C@]1(c2ccccc2)C2=C(CC(C)(C)CC2=O)NC2N=NC(Br)=C21 (stereo partly specified) [US20250313563, Compound 792341]
46 | < 0.1 µM | < 0.1 µM | CC[C@]1(c2cccc(OCC(F)F)c2)C2=CN=NC2NC2=C1C(=O)CC(C)(C)C2 (stereo partly specified) [US20250313563, Compound 949104]
47 | 0.1 to 1 µM | < 0.1 µM | CC[C@@]1(c2cccc(C(F)(F)F)c2)C2=CN=NC2NC2=C1C(=O)N[C@H](C)C2 (stereo partly specified) [US20250313563, Compound 912098]
48 | 0.1 to 1 µM | < 0.1 µM | CC(=O)N1CCC2(C1)CC1(CO2)C2=C(N=NC2)NC2=C1C(=O)CC(C)(C)C2 (stereo unspecified) [US20250313563, Compound 948040]
49 | 0.1 to 1 µM | < 0.1 µM | C[C@@H]1C[C@]2(CCN1S(C)(=O)=O)C1=CN=NC1NC1=C2C(=O)CC(C)(C)C1 (stereo partly specified) [US20250313563, Compound 918316]
50 | < 0.1 µM | < 0.1 µM | CC1(C)CC(=O)C2=C(C1)NC1=C(CN=N1)C21COC2(CN(C(=O)C3CCC(F)C3)C2)C1 (stereo unspecified) [US20250313563, Compound 947486]
51 | 0.1 to 1 µM | 0.1 to 1 µM | CCC1(c2cccc(C(F)(F)F)c2)C2=C(N=NC2)NC2=C1C(=O)CC2 (stereo unspecified) [US20250313563, Compound 949639]
52 | < 0.1 µM | < 0.1 µM | CN(C)C(=O)c1cccc(S(=O)(=O)N2CCC3(CC2)C2=C(N=NC2)NC2=C3C(=O)CC(C)(C)C2)c1 [US20250313563, Compound 947247]
53 | 0.1 to 1 µM | < 0.1 µM | CC[C@@]1(c2cccc(C(F)(F)F)c2)C2=CN=NC2NC2=C1C(=O)N[C@H](C(C)(C)C)C2 (stereo partly specified) [US20250313563, Compound 945922]

Source: BindingDB's records for patent US20250313563 (The Broad Institute, 2025)
